Laboratory results from ChEMBL document CHEMBL4184170, “New Caspase-1 inhibitor by scaffold hopping into bio-inspired 3D-fragment space” (Bioorg Med Chem Lett, 2017).
pIC50: −log10 of the molar value.

Experiments:
Caspase-1 [1] = target: T1, Caspase-1 (Homo sapiens, UniProt P29466); test: Inhibition of human recombinant caspase1 expressed in Escherichia coli using AC-WEHD-AMC as substrate after 20 mins by fluorescence assay
T1 sequence (P29466 whole entry): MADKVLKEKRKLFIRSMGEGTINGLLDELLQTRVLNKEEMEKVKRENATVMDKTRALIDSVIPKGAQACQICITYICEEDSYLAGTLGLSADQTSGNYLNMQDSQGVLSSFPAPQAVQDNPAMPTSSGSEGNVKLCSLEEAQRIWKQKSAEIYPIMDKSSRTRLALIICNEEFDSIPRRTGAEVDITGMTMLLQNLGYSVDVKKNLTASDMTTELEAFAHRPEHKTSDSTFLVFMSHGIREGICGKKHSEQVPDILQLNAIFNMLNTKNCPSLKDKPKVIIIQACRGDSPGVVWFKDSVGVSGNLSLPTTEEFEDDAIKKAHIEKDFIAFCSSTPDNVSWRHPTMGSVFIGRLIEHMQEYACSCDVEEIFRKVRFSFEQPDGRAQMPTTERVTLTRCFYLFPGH

[2] = Lipophilicity, log D of the compound at pH 6.5 by chromatographic method; assay type: physicochemical; details: buffer
Caspase-1 [3] = target: T1, Caspase-1; test: Inhibition of caspase1 in human THP1 cells assessed as LPS/ATP-induced IL-1beta release preincubated for 24 hrs in presence of LPS measured after overnight incubation by HTRF assay; assay type: cell-based
[4] = Fraction unbound in human plasma at 5 uM after 4 hrs by LC-MS/MS-based equilibrium dialysis method; assay type: ADME, cell-free

| SMILES | pIC50 (Caspase-1 [1]) | chromatographic logD [2] | pIC50 (Caspase-1 [3]) | fraction unbound at 4 h, 5 µM [4] |
| --- | --- | --- | --- | --- |
| CC(C)(C)[C@H](NC(=O)c1ccc(N)c(Cl)c1)C(=O)N1CCC[C@H]1C(=O)N[C@H]1CC(=O)OC1O (stereo partly specified) | 8.30 |  |  |  |
| O=C1C[C@H](NC(=O)[C@@H]2CC[C@@H]3CCCC[C@H](NC(=O)c4nccc5ccccc45)C(=O)N32)C(O)O1 (stereo partly specified) | 7.96 |  |  |  |
| CC(C)[C@H](NC(=O)c1ccc2ccccc2c1)C(=O)N1[C@H]2CC[C@](O)(CC2)[C@H]1C(=O)N[C@H]1CC(=O)OC1O (stereo partly specified) | 7.77 | 2.1 | 7.07 | 0.12 |
